# Reference: ChEMBL document CHEMBL5465560, “Selectivity Literature for EUbOPEN Chemogenomic Library” (2024)
# What was measured:
# [1] = biological target: cAMP-dependent protein kinase catalytic subunit beta (Homo sapiens) (UniProt P22694); settings: at 10 µM
# [2] = biological target: Phosphatidylinositol 3-kinase catalytic subunit type 3 (Homo sapiens, UniProt Q8NEB9); assay: Selectivity interaction (ActivX KiNativ screen (kinase selectivity in THP-1 cell lysates)) EUB0000639a PIK3C3; assay type: subcellular; settings: lysate, at 0.2 µM
# [3] = biological target: Dual specificity mitogen-activated protein kinase kinase 2 (Homo sapiens) (UniProt P36507); assay: Selectivity interaction (KinomeScan (DiscoverX)) EUB0000595a MAP2K2; settings: at 10 µM
# [4] = biological target: Hepatocyte growth factor receptor (Homo sapiens, UniProt P08581); assay: Selectivity interaction (Kinase panel (enzymatic assay)) EUB0000595a MET
# [5] = biological target: Serine/threonine-protein kinase PAK 6 (Homo sapiens) (UniProt Q9NQU5); assay: Selectivity interaction (Ambit KINOMEscan and KiNATiv profiling in Jurkat cells) EUB0000090b PAK6; assay type: cell-based; settings: at 1 µM
# Chain of Serine/threonine-protein kinase PAK 6 (Homo sapiens) (Q9NQU5 whole entry, looked up): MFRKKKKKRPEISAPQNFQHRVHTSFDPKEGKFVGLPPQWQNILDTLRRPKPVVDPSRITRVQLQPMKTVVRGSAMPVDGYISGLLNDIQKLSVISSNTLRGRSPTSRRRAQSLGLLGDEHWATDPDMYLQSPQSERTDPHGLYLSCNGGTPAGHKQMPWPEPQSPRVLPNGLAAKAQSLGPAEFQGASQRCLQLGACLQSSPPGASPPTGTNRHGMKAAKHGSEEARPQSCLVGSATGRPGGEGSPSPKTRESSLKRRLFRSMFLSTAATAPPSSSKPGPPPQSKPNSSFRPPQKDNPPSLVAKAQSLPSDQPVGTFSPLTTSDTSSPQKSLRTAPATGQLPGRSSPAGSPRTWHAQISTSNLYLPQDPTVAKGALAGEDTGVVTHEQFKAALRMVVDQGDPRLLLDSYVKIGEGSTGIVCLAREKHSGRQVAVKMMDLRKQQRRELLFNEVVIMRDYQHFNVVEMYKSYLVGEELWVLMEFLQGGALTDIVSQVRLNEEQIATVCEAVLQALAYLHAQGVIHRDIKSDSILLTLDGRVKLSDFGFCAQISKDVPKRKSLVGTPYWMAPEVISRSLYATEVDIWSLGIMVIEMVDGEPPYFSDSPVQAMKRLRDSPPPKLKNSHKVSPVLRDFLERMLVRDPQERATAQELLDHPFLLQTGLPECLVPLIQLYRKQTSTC
# [6] = biological target: Ribosomal protein S6 kinase alpha-1 (Homo sapiens, UniProt Q15418); assay: Selectivity interaction (KinomeScan (DiscoverX)) EUB0000618a RPS6KA1; settings: at 10 µM
# Chain of Ribosomal protein S6 kinase alpha-1 (Q15418 whole entry): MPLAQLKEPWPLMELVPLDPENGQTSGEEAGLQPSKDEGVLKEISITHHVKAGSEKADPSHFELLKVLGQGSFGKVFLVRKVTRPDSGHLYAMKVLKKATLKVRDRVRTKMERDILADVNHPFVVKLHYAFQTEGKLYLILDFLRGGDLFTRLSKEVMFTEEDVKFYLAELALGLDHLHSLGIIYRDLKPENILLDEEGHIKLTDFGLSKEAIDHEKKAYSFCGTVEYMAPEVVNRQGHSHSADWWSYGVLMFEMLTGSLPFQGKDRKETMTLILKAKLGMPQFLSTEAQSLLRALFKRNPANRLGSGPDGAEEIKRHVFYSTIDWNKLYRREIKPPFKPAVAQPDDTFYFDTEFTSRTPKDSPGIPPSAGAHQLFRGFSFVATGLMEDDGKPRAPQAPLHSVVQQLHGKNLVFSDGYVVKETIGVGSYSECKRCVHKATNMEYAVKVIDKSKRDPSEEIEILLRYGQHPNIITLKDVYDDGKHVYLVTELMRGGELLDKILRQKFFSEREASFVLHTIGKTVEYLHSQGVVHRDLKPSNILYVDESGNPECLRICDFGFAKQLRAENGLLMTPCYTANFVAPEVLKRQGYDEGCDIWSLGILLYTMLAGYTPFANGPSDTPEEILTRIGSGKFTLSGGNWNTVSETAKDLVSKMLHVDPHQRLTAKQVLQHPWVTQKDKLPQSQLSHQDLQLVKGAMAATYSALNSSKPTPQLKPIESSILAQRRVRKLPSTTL
# [7] = biological target: T1, Mitogen-activated protein kinase kinase kinase 13 (Homo sapiens) (UniProt O43283); settings: at 10 µM
# T1 sequence (whole entry): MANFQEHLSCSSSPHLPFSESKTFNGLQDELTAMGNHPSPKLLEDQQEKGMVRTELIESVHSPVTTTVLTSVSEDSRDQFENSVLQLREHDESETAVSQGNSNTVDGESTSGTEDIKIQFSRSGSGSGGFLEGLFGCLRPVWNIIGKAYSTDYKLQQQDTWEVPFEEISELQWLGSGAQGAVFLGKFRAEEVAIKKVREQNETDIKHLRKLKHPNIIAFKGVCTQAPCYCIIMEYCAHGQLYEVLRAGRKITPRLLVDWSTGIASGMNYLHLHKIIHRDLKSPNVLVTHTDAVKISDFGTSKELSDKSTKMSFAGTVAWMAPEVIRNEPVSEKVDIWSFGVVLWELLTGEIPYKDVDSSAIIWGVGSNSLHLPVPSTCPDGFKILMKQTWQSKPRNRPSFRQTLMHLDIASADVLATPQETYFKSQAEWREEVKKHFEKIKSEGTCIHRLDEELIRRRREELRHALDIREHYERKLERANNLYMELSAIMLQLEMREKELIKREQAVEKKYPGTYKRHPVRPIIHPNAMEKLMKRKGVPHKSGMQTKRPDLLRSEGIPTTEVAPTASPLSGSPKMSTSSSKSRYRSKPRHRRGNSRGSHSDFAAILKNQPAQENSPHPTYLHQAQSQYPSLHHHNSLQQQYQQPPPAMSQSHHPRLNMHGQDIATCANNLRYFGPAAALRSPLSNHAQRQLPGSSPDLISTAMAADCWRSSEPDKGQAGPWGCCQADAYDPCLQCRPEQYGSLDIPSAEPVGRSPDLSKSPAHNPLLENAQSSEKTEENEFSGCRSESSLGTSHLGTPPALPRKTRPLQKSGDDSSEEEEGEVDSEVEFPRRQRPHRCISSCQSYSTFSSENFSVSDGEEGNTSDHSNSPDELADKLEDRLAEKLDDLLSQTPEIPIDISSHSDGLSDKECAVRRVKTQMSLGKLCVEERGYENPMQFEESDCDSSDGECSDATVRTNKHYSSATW
# [8] = biological target: Wee1-like protein kinase 2 (Homo sapiens) (UniProt P0C1S8); settings: at 10 µM
# [9] = biological target: Myosin light chain kinase, smooth muscle (Homo sapiens, UniProt Q15746); assay: Selectivity interaction (ActivX KiNativ screen (ex vivo kinase selectivity in human PBMCs)) EUB0001619a MYLK; assay type: cell-based; settings: PBMC, at 1 µM
# [10] = biological target: Protein kinase C delta type (Homo sapiens) (UniProt Q05655); assay: Selectivity interaction (Upstate Kinase Profiler service (Millipore)) EUB0000056c PRKCD; settings: at 1 µM
# [11] = biological target: T2, Serine/threonine-protein kinase STK11 (Homo sapiens) (UniProt Q15831); assay: Selectivity interaction (Upstate Kinase Profiler service (Millipore)) EUB0000056c STK11; settings: at 1 µM
# T2 sequence (whole entry): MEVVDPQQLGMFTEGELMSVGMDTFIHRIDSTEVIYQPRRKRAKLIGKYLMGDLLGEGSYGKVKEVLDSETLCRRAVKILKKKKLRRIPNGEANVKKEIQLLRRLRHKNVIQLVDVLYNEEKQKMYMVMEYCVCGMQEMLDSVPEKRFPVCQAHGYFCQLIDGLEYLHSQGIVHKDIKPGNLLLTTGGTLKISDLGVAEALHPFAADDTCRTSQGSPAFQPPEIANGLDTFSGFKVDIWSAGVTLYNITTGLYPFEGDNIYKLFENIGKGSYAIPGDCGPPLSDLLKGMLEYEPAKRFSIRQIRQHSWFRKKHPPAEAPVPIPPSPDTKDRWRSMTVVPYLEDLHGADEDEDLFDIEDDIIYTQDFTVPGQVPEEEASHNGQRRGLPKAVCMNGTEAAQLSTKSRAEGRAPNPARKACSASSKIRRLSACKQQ
# [12] = tested on: eIF-2-alpha kinase GCN2 (Homo sapiens), Q9P2K8 [S808G]; assay: Selectivity interaction (KinomeScan (DiscoverX)) EUB0000655a EIF2AK4; settings: at 10 µM
# Chain of eIF-2-alpha kinase GCN2 (Homo sapiens), Q9P2K8 [S808G] (Q9P2K8 whole entry S808G): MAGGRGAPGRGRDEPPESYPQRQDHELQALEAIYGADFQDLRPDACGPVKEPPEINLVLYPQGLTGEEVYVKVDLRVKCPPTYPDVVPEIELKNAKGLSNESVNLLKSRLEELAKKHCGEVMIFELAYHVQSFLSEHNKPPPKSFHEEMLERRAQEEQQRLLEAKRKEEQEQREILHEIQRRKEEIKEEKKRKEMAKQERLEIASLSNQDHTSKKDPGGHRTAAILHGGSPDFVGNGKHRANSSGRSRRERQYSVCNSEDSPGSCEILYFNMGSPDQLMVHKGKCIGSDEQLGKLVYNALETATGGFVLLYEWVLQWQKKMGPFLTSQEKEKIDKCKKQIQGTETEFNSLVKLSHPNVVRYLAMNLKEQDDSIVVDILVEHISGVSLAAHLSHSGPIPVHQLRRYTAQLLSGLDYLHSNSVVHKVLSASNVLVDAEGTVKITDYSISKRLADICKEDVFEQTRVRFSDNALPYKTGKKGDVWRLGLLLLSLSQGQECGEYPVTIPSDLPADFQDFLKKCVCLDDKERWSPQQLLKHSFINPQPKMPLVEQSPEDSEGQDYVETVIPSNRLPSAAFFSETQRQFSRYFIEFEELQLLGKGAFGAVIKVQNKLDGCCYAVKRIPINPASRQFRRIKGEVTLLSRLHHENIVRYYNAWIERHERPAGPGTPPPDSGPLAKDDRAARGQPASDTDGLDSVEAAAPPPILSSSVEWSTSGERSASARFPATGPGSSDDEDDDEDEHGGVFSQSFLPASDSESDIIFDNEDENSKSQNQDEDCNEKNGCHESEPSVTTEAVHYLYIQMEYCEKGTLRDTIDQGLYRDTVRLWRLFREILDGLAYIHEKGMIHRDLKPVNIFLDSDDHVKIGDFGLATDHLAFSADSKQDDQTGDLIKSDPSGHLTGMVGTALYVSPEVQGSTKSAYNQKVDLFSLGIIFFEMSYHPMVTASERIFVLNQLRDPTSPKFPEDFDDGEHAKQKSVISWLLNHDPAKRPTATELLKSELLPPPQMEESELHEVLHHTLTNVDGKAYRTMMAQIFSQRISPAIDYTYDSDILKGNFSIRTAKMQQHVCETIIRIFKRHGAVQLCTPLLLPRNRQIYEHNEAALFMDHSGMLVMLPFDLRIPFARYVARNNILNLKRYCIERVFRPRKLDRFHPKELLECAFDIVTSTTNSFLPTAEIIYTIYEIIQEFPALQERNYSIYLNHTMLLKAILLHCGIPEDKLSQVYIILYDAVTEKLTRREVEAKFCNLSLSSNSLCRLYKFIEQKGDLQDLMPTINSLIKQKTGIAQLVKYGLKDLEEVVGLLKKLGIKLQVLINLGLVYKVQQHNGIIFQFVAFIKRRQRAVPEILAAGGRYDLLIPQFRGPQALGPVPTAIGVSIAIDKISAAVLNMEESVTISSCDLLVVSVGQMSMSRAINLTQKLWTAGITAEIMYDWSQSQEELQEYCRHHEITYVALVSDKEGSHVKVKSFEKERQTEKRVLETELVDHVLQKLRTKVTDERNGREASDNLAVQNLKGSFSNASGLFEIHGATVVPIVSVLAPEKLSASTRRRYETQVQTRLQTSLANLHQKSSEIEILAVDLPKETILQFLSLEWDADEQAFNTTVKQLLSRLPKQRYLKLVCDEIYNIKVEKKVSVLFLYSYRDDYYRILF
# [13] = biological target: Protein-tyrosine kinase 6 (Homo sapiens, UniProt Q13882); assay: Selectivity interaction (KinomeScan (DiscoverX)) EUB0000655a PTK6; settings: at 10 µM
# Chain of Protein-tyrosine kinase 6 (Q13882 whole entry, looked up): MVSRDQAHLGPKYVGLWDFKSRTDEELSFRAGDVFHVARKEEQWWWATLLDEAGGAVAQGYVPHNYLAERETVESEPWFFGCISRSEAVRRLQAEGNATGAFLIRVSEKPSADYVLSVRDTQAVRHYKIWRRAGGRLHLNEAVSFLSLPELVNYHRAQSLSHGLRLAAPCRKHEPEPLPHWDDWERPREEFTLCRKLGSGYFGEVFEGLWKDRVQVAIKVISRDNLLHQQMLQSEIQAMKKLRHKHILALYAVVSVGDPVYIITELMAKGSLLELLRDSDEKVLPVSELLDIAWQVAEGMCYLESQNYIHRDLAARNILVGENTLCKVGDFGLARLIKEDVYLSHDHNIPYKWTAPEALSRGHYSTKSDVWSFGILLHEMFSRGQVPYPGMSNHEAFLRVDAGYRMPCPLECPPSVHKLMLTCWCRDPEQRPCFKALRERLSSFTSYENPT
# [14] = biological target: Tyrosine-protein kinase JAK1 (Homo sapiens, UniProt P23458); assay: Selectivity interaction (KinomeScan (DiscoverX)) EUB0000607a JAK1; settings: at 10 µM
# [15] = biological target: Fibroblast growth factor receptor 2 (Homo sapiens) (UniProt P21802); assay: Selectivity interaction (ProQinase) EUB0000171b FGFR2
# Chain of Fibroblast growth factor receptor 2 (Homo sapiens) (P21802 22-821 limits assumed): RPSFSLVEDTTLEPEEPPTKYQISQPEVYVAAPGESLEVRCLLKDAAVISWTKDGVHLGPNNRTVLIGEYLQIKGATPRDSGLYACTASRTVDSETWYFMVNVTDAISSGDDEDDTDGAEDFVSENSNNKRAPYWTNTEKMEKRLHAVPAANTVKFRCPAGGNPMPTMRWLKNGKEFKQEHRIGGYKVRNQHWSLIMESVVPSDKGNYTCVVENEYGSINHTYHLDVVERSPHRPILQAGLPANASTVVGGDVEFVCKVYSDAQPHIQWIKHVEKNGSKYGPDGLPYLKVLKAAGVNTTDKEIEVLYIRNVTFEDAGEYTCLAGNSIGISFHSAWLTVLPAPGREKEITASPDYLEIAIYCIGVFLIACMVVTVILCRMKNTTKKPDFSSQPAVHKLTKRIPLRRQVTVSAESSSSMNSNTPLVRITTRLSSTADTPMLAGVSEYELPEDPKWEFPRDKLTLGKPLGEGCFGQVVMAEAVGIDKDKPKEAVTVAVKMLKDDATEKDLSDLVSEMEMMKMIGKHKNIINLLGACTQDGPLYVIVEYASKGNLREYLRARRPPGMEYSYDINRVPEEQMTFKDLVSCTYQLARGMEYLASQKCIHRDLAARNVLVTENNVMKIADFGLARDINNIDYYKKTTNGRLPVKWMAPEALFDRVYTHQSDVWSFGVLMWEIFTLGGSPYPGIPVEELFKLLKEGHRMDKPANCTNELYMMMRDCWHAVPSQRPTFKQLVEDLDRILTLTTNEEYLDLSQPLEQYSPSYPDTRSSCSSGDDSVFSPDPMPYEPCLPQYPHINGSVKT
# [16] = biological target: Tyrosine-protein kinase Lyn (Homo sapiens, UniProt P07948); assay: Selectivity interaction (ProQinase) EUB0000171b LYN
# Chain of Tyrosine-protein kinase Lyn (P07948 2-512 limits assumed): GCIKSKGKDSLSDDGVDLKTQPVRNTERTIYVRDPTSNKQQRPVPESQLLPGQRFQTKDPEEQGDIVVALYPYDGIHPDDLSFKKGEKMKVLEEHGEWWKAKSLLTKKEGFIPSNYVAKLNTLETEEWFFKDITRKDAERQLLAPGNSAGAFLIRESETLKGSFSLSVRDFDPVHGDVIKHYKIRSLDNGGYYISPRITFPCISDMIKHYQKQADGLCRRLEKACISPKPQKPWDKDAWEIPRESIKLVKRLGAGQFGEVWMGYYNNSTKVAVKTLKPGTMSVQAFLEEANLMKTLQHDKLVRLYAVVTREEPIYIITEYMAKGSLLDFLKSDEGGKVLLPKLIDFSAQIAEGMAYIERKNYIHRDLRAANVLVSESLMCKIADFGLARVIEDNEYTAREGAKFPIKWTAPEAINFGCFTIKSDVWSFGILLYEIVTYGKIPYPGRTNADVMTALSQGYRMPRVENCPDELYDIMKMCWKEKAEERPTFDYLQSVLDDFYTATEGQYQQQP
smiles,measurement,setting,value
CCN(CC)CCCCNc1ncc2cc(-c3cc(OC)cc(OC)c3)c(NC(=O)NC(C)(C)C)nc2n1,% of control,[1],100%
CC[C@@H]1[C@H](F)C(=O)N[C@@H]1COc1nccc2cc(C(N)=O)c(OC)cc12 [ZIMLOVISERTIB],% of inhibition,[2],-20.4%
COCC(=O)NC/C=C/c1ccc2ncnc(Nc3ccc(Oc4ccc(C)nc4)c(C)c3)c2c1 [CP-724714],% of control,[3],11%
same,IC50,[4],> 10 µM
CN(C)C/C=C/C(=O)Nc1ccc(C(=O)N2CCCC(Nc3ncc(Cl)c(-c4c[nH]c5ccccc45)n3)C2)cc1 (stereo not drawn),% of control,[5],33%
O[C@H]1CC[C@H](Nc2ncc3nc(Nc4c(F)cc(F)cc4F)n([C@H]4CCOC4)c3n2)CC1,% of control,[6],98%
Cc1cc([C@@H](C)Nc2ccccc2C(=O)O)c2nc(N3CCOCC3)cc(=O)n2c1 [AZD-6482],% of control,[7],100%
same,% of control,[8],100%
N#Cc1cccc(-c2c[nH]c3ncnc(N4CCOCC4)c23)c1,% of inhibition,[9],16%
Cc1ccc(-c2ccc3c(ccc4sc5c(c43)NC[C@@H](C)NC5=O)n2)cn1,% of inhibition,[10],33%
same,% of inhibition,[11],-15%
CN(C)CCOc1ccc(-c2nc(-c3ccncc3)c(-c3ccc4c(c3)CC/C4=N\O)[nH]2)cc1,% of control,[12],97%
same,% of control,[13],82%
CNC(=O)Nc1ccc(-c2nc(N3CC4CCC(C3)O4)c3cnn(C4CCC5(CC4)OCCO5)c3n2)cc1,% of control,[14],83%
C=CC(=O)Nc1cccc(C(=O)Nc2ccc(Nc3cc(-c4[nH]c(SC)nc4C)ccn3)cc2)c1,% of control,[15]; at 1 µM,105%
same,% of control,[15]; at 5 µM,87%
same,% of control,[16]; at 1 µM,99%
same,% of control,[16]; at 5 µM,94%
